# In patent publication US20200230205A1, “COMPOSITIONS AND METHODS FOR TREATING MYELIN DISORDERS” (CASE WESTERN RESERVE UNIVERSITY, priority 2017, published 2020):
# Tested on: MMP-2
# Experiment: MMP-2 in OPC conditioned media or lysate (gelatin zymography, western blot)
# Assay type: cell-based, mouse
# Description: To assess MMP-2 or 10 in OPC CM or lysates, OPCs were incubated on precoated PLL, aggrecan, and laminin as described above. OPCs were treated with vehicle, 2.5 μM ISP or SISP for 2 days at 37° C. CM was then harvested and concentrated using Milipore Ultracel YM-C centrifugal filter units at max speed (Eppendorf Centrifuge 5415D) for 30 minutes at 4° C. […] of concentrated CM was loaded into each lane. OPC lysates were assessed using western blot techniques described below with […] protein loaded from each group.
# Tissue samples or cerebellar slices or purified OPC cells were homogenized with RIPA lysis buffer and protein concentration was determined by Pierce BCA protein assay kit according to the manufacture instruction (Thermo Fisher). Then, equal amounts of protein were loaded to 15% SDS-PAGE gels, and electrophoretically transferred to PVDF membranes (Millipore). The membranes were blocked in 0.1% TPBS buffer with 5% non-fat milk for 1h at room temperature and probed with indicated primary antibodies overnight at 4° C. and followed by secondary antibody conjugated to horseradish peroxidase (HRP). The following primary antibodies were used: MBP (SMI-99P, Covance, 1:1000), CS-56 (C8035, Sigma, 1:1000), Laminin (L9393, Sigma, 1:1000), GAPDH (AF5718, R and D Systems, 1:1000), MMP-2 (AF1488, R and D Systems, 1:1000), MMP-10 (MAB910, R and D Systems, 1:1000), and […] (sc-47778, Santa Cruz, 1:1000). Enhanced chemiluminescence was performed with a West Pico Kit (Thermo Fisher) and detected by FluorChem E system (ProteinSimple, USA). The density of bands was quantified using ImageJ software (NIH).
# CM was collected from 1×10^6 OPCs incubated on PLL, 1 μg/mL laminin, and 2 μg/mL aggrecan coated 6-well plates. OPCs were treated with vehicle, 2.5 μM ISP or SISP for 2 days at 37° C. […] Following washes with destaining buffer (40% MeOH, 10% Acetic Acid), Zymograms were imaged and the amount of gelatin degradation was assessed using ImageJ in a method described in the western blot section.
sequence,measurement,setting,value
GRKKRRQRRRCDMAEHMERLKANDSLKLSQEYESI [ISP],"MMP-2 gelatin-degrading activity, zymography","OPC CM, 2.5 μM ISP vs controls",significantly increased
same,MMP-2 expression in OPC lysates normalized over GAPDH,"OPC lysates, ISP",decrease in MMP-2 expression
same,"MMP-2 in OPC CM, western blot","concentrated OPC CM, 2.5 μM ISP",clearly enhanced
